Patent US20150184166A1 (Uinversity of Iowa Research Foundation, priority 2012, published 2015)
“And” between values parts separate entries of the source, which are not always exact repeats. Equal entries are not always repeated. Where two headings read alike, the source gives them in different places.

Tests used:
[1] = tested on: Ndm (methylxanthine N-demethylase) with Ccr reductase
[2] = target: T1, Caffeine dehydrogenase (Cdh) (Pseudomonas sp., UniProt D7REY3); conditions: cited from earlier work
T1 sequence (D7REY3 1-791): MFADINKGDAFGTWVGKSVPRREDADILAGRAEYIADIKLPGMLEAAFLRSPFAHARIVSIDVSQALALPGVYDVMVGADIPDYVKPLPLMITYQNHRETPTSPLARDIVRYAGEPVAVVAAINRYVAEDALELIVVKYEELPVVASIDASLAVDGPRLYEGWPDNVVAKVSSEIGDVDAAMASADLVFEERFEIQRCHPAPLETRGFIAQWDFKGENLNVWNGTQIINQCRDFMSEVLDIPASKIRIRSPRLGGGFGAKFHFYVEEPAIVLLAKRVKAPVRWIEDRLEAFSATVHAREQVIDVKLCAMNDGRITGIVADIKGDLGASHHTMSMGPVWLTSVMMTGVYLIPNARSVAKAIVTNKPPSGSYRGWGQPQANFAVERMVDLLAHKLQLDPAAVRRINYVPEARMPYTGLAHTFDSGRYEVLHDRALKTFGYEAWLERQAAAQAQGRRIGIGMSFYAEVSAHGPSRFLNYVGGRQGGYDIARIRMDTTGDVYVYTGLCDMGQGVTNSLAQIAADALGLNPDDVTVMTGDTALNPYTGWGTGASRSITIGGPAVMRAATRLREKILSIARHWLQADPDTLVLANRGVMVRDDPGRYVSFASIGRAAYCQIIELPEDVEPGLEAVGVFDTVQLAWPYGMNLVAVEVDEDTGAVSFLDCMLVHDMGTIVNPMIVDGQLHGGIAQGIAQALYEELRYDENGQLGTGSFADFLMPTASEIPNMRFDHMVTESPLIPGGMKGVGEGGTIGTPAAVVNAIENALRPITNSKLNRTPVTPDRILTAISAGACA
T1 sequence (D7REY4 1-295 partner): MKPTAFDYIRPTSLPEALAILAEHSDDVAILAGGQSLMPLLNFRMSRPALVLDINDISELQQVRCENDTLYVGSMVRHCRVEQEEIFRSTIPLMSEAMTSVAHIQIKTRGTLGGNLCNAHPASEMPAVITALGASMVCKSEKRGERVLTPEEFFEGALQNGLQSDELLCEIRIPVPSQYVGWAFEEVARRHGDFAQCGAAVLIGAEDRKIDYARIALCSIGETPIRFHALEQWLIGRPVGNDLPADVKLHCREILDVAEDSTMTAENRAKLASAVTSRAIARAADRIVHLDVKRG
T1 sequence (D7REY5 1-167 partner): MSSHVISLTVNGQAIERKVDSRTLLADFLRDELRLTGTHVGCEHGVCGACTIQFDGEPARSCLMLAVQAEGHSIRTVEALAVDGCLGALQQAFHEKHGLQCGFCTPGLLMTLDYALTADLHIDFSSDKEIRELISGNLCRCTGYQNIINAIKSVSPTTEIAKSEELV

NdmB-His6 = NdmB-His6 (Pseudomonas putida, UniProt H9N290); test: Kinetic parameters of NdmB-His6 with His6-NdmD; format: biochemical, Pseudomonas putida CBB5; conditions: for kcat / Km: NdmB-His6 plus His6-NdmD, pH 7.5, 30° C.
Procedure: (§1) Methylxanthine N-demethylase activity assay contained, in 1-ml total volume, 0.5 mM methylxanthine, 1 mM NADH, 50 μM Fe(NH4)2(SO4)2, and an appropriate amount of NdmA-His6 or NdmB-His6 (7.4 μg-2.5 mg protein depending on substrate specificity) in 50 mM KPi buffer (pH 7.5). Approximately 4 U of partially purified reductase, prepared as described previously (Summers et al., 2011) or 59 U of purified His6-NdmD was added to reaction mixture. Catalase from bovine liver (4,000 U) was also added to reactions containing His6-NdmD. The reaction mixture was incubated at 30° C. with 300 rpm shaking on an incubating microplate shaker (VWR, Radnor, Pa.). Periodically, a small aliquot was sampled from the reaction mixture and mixed with equal volume of acetonitrile for quantifying concentrations of methylxanthines and N-demethylated products by HPLC. One unit of N-demethylase activity was defined as the consumption of one […] methylxanthine per minute.
(§2) Apparent kinetic parameters of NdmA-His6 and NdmB-His6 were determined by measuring the initial rate of disappearance (vo) of methylxanthines in 50 mM KPi buffer (pH 7.5) at 30° C. The initial substrate concentrations ([S]) used in these experiments were from 25 to 500 μM. Substrates were incubated with His6-NdmD plus either NdmA-His6 or NdmB-His6 under standard conditions for 15 minutes. At 1, 5, 10, and 15 minutes, samples were removed from the reaction mixtures to quantitate substrate concentrations by HPLC. Plots of substrate concentrations against time were used to determine the initial rates of disappearance of substrates which were linear over 15 minutes. The apparent kinetic parameters were determined from Michaelis-Menten plots of vo against [S] fitted with the equation

[3] = tested on: cell extracts of P. putida CBB5; test: NADH-dependent N-demethylase activity of CBB5 cell extracts; format: biochemical, Pseudomonas putida CBB5; conditions: 0.5 mM substrate, 7.2 mg mL^−1 protein
[4] = target: Ndm (methylxanthine N-demethylase) with Ccr reductase (Pseudomonas putida, UniProt H9N289+H9N290); conditions: for O-demethylation by Ndm: prolonged incubation
NdmA-His6 = target: T2, NdmA-His6 (Pseudomonas putida, UniProt H9N289); test: Kinetic parameters of NdmA-His6 with His6-NdmD; format: biochemical, Pseudomonas putida CBB5; conditions: for kcat / Km: NdmA-His6 plus His6-NdmD, pH 7.5, 30° C.
T2 sequence (H9N289 1-351): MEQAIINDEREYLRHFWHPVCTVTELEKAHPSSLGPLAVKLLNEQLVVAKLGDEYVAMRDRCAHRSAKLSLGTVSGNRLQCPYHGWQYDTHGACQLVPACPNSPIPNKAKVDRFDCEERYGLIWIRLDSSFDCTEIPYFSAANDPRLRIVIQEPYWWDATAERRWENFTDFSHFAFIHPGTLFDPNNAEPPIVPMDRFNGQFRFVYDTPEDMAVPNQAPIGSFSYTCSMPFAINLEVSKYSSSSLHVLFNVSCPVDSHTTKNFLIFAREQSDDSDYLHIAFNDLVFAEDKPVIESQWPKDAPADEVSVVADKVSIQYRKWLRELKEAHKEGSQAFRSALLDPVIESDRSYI
Procedure: as §1, §2

NdmC = test: N-demethylation by NdmC fraction co-purified with reductase; format: biochemical, Pseudomonas putida CBB5
Description: This activity was neither associated with NdmA nor with NdmB. […] Cloning of NdmC has proven difficult; nevertheless based on the fact that purified His6-NdmD had no activity on 7-methylxanthine, we annotate orf 8 as aanother RO with highly specific N-7 demthylase activity.

[5] = target: T3, Ndm, two-subunit N-demethylase component purified from Pseudomonas putida CBB5, H9N289
T3 chain 1: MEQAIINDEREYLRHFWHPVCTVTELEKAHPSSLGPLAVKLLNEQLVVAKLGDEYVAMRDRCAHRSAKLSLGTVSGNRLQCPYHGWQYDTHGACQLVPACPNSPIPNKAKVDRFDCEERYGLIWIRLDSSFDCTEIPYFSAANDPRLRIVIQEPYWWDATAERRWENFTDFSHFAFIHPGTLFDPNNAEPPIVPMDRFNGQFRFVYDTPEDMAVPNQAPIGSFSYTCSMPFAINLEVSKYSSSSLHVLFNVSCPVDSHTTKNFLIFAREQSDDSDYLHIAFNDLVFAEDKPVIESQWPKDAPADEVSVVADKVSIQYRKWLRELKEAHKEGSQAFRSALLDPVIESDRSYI
T3 chain 2: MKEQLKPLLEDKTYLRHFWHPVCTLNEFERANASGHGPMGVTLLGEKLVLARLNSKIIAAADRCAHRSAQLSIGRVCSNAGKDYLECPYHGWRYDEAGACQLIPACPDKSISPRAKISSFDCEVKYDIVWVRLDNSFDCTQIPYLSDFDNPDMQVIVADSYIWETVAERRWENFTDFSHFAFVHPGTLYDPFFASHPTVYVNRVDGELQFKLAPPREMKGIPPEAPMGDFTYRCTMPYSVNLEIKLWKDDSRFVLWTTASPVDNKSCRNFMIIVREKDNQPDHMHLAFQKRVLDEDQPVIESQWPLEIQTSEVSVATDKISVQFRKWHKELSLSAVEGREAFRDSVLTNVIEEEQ

Molecule: O=c1[nH]c(=O)c2[nH]cnc2[nH]1 [xanthine]
- product formed from paraxanthine ([1]; 90 minutes, 7.4 mU (7.4 units) of Ndm): 193.7 ± 4.0 µM and 193.7 ± 14.0 µM
- N-demethylation product present ([1]; from paraxanthine, after 13 minutes): ~20.3 µM
- activity of Cdh [2]: no activity
- activity of Cdh in substrate specificity study [2]: none

Molecule: Cn1c(=O)c2[nH]cnc2n(C)c1=O [Theophylline, 1,3-dimethylxanthine]
- activity of Cdh [2]: no activity
- activity of Cdh in substrate specificity study [2]: 5%
- kcat (NdmB-His6): 0.0045 s⁻¹
- Km (NdmB-His6; read-out: Km): 169 µM
- degradation rate compared with paraxanthine [3]: significantly slower

Molecule: COc1cc(C(=O)O)ccc1O [vanillate]
- O-demethylation by Ndm [4]: did not catalyze O-demethylation

Molecule: COc1cc(C=O)ccc1O [vanillin]
- O-demethylation by Ndm [4]: did not catalyze O-demethylation

Molecule: Cn1c(=O)c2c(ncn2C)n(C)c1=O [Caffeine, 1,3,7-trimethylxanthine]
- kcat (NdmA-His6): 3.205 s⁻¹
- Km (NdmA-His6; read-out: Km): 37.6 µM
- Km ([2]; Yu et al., 2008): 3.7 ± 0.9 µM
- N-demethylation by NdmC/reductase fraction (NdmC): not N-demethylated
- kcat (NdmB-His6): 0.00383 s⁻¹
- Km (NdmB-His6; read-out: Km): 41.7 µM
- degradation rate compared with paraxanthine [3]: significantly slower

Molecule: Cn1c(=O)[nH]c(=O)c2[nH]cnc21 [3-Methylxanthine, 3-methylxanthine]
- N-demethylation activity of NdmA (NdmA-His6): inactive
- Km (NdmA-His6): ∞
- kcat (NdmB-His6): 0.528 s⁻¹
- Km (NdmB-His6; read-out: Km): 22.4 µM

Molecule: Cn1c(=O)[nH]c2ncn(C)c2c1=O [Paraxanthine, 1,7-dimethylxanthine]
- Km ([1]; read-out: apparent KM, saturating Ccr, 50 μM Fe2+, 30° C., 50 mM KPi pH 7.5): 50.4 ± 6.8 µM
- apparent kcat ([1]; saturating Ccr, 50 μM Fe2+, 30° C., 50 mM KPi pH 7.5): 0.27 ± 0.01 s⁻¹
- paraxanthine N-demethylated ([4]; after 13 minutes, 100 μM paraxanthine, 0.2 mg Ndm, 4 U Ccr): 60.2 µM
- kcat (NdmA-His6): 2.215 s⁻¹
- Km (NdmA-His6; read-out: Km): 52.9 µM
- N-demethylation by NdmC/reductase fraction (NdmC): not N-demethylated
- N-demethylation activity of NdmB (NdmB-His6): no activity
- Km (NdmB-His6): ∞
- time to complete utilization ([3]; 0.5 mM NADH): about 20 minutes

Molecule: Cn1c(=O)[nH]c2nc[nH]c2c1=O [1-methylxanthine]
- kcat (NdmA-His6): 0.26 s⁻¹
- Km (NdmA-His6; read-out: Km): 267 µM
- N-demethylation activity of NdmB (NdmB-His6): no activity
- Km (NdmB-His6): ∞

Molecule: Cn1cnc2c1c(=O)[nH]c(=O)n2C [Theobromine, 3,7-dimethylxanthine]
- N-demethylation activity of NdmA (NdmA-His6): inactive
- Km (NdmA-His6): ∞
- Preference as a substrate, times less than caffeine [2]: 50 times
- N-demethylation by NdmC/reductase fraction (NdmC): not N-demethylated
- kcat (NdmB-His6): 0.772 s⁻¹
- Km (NdmB-His6; read-out: Km): 25.3 µM
- degradation rate compared with paraxanthine [3]: significantly slower

B1: Reductase component of Pseudomonas sp. 9816 naphthalene dioxygenase (protein)
chain: MELLIQPNNRIIPFSAGANLLEVLRENGVAISYSCLSGRCGTCRCRVIDGSVIDSGAENGQSNLTDKQYVLACQSVLTGNCAIEVPEADEIVTHPARIIKGTVVAVESPTHDIRRLRVRLSKPFEFSPGQYATLQFSPEHARPYSMAGLPDDQEMEFHIRKVPGGRVTEYVFEHVREGTSIKLSGPLGTAYLRQKHTGPMLCVGGGTGLAPVLSIVRGALKSGMTNPILLYFGVRSQQDLYDAERLHKLAADHPQLTVHTVIATGPINEGQRAGLITDVIEKDILSLAGWRAYLCGAPAMVEALCTVTKHLGISPEHIYADAFYPGGI
- N-demethylase activity [5]: Ndm did not function in the presence of the reductase and ferredoxin components of Pseudomonas sp. 9816 naphthalene dioxygenase

B2: Spinach ferredoxin reductase (protein)
chain: QIASDVEAPPPAPAKVEKHSKKMEEGITVNKFKPKTPYVGRCLLNTKITGDDAPGETWHMVFSHEGEIPYREGQSVGVIPDGEDKNGKPHKLRLYSIASSALGDFGDAKSVSLCVKRLIYTNDAGETIKGVCSNFLCDLKPGAEVKLTGPVGKEMLMPKDPNATIIMLGTGTGIAPFRSFLWKMFFEKHDDYKFNGLAWLFLGVPTSSSLLYKEEFEKMKEKAPDNFRLDFAVSREQTNEKGEKMYIQTRMAQYAVELWEMLKKDNTYFYMCGLKGMEKGIDDIMVSLAAAEGIDWIEYKRQLKKAEQWNVEVY
- N-demethylase activity [5]: Ndm did not couple with ferredoxin reductase plus ferredoxin from spinach
